Experimental data published in ChEMBL document CHEMBL1909046, “DrugMatrix in vitro pharmacology data”.

How the values were obtained:
[1] = DRUGMATRIX: Phorbol Ester radioligand binding (ligand: [3H] PDBu); type: cell membranes, Mus musculus, ICR, Brain, Membrane; settings: Not Active = under 50% inhibition at 10 µM
Carbonic anhydrase 2 = Carbonic anhydrase 2 (Homo sapiens, UniProt P00918); experiment: DRUGMATRIX: Carbonic Anhydrase II enzyme inhibition (substrate: 4-Nitrophenyl acetate (4-NPA)); type: tissue-based, Erythrocyte; settings: erythrocyte; Not Active = under 50% inhibition at 10 µM
[2] = DRUGMATRIX: Calcium Channel Type L, Dihydropyridine radioligand binding (ligand: [3H] Nitrendipine); type: cell membranes, Rattus norvegicus, Wistar, Cerebral cortex, Membrane; settings: Not Active = under 50% inhibition at 10 µM
D(3) dopamine receptor = D(3) dopamine receptor (Homo sapiens, UniProt P35462); experiment: DRUGMATRIX: Dopamine D3 radioligand binding (ligand: [3H] Spiperone); type: cell membranes, CHO, Membrane; settings: cho
D(3) dopamine receptor, sequence (P35462 whole entry): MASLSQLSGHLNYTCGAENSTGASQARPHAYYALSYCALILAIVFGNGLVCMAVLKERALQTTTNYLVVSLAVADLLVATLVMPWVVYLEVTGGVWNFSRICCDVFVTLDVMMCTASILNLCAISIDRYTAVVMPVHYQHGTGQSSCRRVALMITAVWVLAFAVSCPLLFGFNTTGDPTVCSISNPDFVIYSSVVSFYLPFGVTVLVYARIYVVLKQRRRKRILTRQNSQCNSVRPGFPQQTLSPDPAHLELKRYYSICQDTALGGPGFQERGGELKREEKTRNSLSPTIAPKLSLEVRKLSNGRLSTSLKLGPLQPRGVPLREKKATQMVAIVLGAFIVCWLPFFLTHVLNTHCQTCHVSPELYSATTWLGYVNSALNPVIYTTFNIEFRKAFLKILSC

[3] = DRUGMATRIX: Glutamate, AMPA radioligand binding (ligand: [3H] AMPA); type: cell membranes, Rattus norvegicus, Wistar, Cerebral cortex, Membrane; settings: Not Active = under 50% inhibition at 10 µM
Melanocortin receptor 3 = Melanocortin receptor 3 (Homo sapiens, UniProt P41968); type: cell membranes, Membrane; settings: hek293; note: in other assays of this panel Not Active means under 50% inhibition at 10 µM
Melanocortin receptor 3, sequence (P41968 whole entry): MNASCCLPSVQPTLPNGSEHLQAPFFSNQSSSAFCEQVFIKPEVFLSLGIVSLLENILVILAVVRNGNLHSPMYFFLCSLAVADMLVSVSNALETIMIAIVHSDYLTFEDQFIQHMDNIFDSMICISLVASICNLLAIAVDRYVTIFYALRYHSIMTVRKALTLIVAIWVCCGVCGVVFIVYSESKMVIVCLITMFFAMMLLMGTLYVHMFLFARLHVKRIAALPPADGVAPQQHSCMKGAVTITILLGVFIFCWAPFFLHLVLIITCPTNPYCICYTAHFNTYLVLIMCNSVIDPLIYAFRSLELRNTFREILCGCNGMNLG

[4] = target: Tyrosine-protein kinase Fyn (Homo sapiens, UniProt P06241); experiment: biochemical; type: cell-based, Insect cells; settings: insect cells;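 note: enzymatic inhibition of Fyn kinase activity measured with Poly(Glu:Tyr) as the phosphorylation substrate; in other assays of this panel Not Active means under 50% inhibition at 10 µM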
Tyrosine-protein kinase Fyn, sequence (P06241 whole entry): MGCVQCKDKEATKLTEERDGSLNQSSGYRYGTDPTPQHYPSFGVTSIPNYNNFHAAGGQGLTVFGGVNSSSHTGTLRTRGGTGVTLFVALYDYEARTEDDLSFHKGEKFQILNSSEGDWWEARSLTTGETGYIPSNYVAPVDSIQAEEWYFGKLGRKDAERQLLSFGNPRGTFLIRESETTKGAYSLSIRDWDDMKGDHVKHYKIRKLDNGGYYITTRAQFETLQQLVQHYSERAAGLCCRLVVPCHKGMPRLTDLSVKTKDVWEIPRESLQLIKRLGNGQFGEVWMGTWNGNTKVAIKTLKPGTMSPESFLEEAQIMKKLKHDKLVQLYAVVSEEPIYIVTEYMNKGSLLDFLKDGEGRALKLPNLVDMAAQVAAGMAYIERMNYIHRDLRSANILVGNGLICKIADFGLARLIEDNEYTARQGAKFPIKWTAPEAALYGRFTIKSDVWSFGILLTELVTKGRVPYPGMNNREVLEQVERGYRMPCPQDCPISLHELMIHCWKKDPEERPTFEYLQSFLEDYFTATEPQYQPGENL

Substance-P receptor = Substance-P receptor (Homo sapiens, UniProt P25103); type: cell membranes, CHO, Membrane; settings: cho; note: in other assays of this panel Not Active means under 50% inhibition at 10 µM
Substance-P receptor, sequence (P25103 whole entry): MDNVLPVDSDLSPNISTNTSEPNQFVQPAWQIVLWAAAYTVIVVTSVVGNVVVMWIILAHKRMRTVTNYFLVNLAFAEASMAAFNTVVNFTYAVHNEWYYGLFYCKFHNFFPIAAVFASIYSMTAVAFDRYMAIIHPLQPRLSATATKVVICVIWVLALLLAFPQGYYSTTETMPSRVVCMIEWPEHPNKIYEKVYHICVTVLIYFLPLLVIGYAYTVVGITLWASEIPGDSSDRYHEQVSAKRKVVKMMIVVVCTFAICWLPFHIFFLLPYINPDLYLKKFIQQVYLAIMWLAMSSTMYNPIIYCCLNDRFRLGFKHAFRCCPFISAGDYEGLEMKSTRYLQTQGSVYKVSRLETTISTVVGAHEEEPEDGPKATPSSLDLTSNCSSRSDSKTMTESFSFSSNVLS

[5] = target: Aldo-keto reductase family 1 member B1 (Rattus norvegicus, UniProt P07943); type: tissue-based, Lens of camera-type eye;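 note: inhibition of aldose reductase enzyme activity, measured with DL-glyceraldehyde as the substrate; in other assays of this panel Not Active means under 50% inhibition at 10 µM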
Interstitial collagenase = target: T1, Interstitial collagenase (Homo sapiens, UniProt P03956); type: tissue-based, Rheumatoid synovial fibroblasts
T1 sequence (P03956 whole entry): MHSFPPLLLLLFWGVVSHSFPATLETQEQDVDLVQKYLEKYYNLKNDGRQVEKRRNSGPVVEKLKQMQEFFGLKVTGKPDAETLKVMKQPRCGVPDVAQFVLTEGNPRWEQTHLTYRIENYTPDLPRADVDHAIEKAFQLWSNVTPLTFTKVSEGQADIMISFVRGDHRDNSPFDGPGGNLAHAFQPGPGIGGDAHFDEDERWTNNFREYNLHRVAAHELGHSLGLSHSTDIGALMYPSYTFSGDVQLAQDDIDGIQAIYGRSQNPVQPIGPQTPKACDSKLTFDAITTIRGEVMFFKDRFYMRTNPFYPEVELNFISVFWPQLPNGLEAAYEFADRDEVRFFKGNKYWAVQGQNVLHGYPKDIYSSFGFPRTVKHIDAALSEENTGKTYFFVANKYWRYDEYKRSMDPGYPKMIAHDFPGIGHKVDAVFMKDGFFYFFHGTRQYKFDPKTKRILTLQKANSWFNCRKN

[6] = DRUGMATRIX: Serotonin (5-Hydroxytryptamine) 5-HT3 radioligand binding (ligand: [3H] GR-65630); type: cell membranes, Membrane; settings: hek293; Not Active = under 50% inhibition at 10 µM
[7] = DRUGMATRIX: GABAA, Flunitrazepam, Central radioligand binding (ligand: [3H] Flunitrazepam); type: cell membranes, Rattus norvegicus, Wistar, Brain, Membrane; settings: Not Active = under 50% inhibition at 10 µM
[8] = target: Mitogen-activated protein kinase 14 (Homo sapiens, UniProt Q16539); set-up: species or system Escherichia coli
Mitogen-activated protein kinase 14, sequence (Q16539 whole entry): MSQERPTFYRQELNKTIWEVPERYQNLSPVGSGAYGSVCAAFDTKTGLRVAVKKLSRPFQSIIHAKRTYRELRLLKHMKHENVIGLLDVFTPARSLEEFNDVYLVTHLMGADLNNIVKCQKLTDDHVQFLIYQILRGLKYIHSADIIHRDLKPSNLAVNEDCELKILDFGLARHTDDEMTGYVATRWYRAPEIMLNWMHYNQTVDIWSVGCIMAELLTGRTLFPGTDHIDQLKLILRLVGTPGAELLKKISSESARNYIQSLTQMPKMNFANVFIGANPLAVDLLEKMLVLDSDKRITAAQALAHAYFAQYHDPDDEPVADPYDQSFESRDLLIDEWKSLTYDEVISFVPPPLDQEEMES

Adenosine receptor A3 = target: T2, Adenosine receptor A3 (Homo sapiens, UniProt P0DMS8); type: cell membranes, CHO-K1, Membrane; settings: cho-k1
T2 sequence (P0DMS8 whole entry): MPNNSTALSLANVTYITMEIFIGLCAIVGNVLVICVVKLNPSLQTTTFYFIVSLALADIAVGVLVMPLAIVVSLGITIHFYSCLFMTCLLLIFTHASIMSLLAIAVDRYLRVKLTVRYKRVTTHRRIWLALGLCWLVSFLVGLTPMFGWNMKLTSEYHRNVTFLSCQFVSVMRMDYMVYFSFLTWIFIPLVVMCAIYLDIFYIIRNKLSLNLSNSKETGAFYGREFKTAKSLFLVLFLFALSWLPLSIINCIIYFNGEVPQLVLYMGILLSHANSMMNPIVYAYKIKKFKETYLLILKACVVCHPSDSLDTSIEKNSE

[9] = DRUGMATRIX: Glutamate, Kainate radioligand binding (ligand: [3H] Kainic acid); type: cell membranes, Rattus norvegicus, Wistar, Brain, Membrane; settings: Not Active = under 50% inhibition at 10 µM
[10] = DRUGMATRIX: GABAA, Muscimol, Central radioligand binding (ligand: [3H] Muscimol); type: cell membranes, Rattus norvegicus, Wistar, Brain, Membrane; settings: Not Active = under 50% inhibition at 10 µM
[11] = target: Delta-type opioid receptor (Homo sapiens, UniProt P41143); type: cell membranes, HEK293, Membrane; settings: hek293; note: in other assays of this panel Not Active means under 50% inhibition at 10 µM
Delta-type opioid receptor, sequence (P41143 whole entry): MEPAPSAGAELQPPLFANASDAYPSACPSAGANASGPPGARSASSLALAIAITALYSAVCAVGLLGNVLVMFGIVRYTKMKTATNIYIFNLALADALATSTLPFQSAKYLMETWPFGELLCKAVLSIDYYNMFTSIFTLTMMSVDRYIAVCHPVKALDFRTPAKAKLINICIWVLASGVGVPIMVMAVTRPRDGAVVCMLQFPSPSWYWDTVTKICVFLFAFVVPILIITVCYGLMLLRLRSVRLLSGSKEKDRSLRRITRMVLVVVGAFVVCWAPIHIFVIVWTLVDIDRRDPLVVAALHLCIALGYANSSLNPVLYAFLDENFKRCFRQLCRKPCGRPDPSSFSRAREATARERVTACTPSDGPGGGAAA

[12] = target: T3, C-X-C chemokine receptor type 1 (Homo sapiens, UniProt P25024); note: in other assays of this panel Not Active means under 50% inhibition at 10 µM
T3 sequence (P25024 whole entry): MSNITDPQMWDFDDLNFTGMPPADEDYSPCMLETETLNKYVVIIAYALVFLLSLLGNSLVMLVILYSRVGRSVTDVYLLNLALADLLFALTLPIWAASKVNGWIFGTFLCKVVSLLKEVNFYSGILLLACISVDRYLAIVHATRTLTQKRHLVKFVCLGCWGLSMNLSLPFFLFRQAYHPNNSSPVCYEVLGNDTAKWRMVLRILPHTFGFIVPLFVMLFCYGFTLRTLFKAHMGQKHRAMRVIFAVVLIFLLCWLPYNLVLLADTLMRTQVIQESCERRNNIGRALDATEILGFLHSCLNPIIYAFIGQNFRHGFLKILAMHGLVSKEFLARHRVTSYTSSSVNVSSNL

D(1A) dopamine receptor = D(1A) dopamine receptor (Homo sapiens, UniProt P21728); experiment: DRUGMATRIX: Dopamine D1 radioligand binding (ligand: [3H] SCH-23390); type: cell membranes, CHO, Membrane; settings: cho; Not Active = under 50% inhibition at 10 µM
D(1A) dopamine receptor, sequence (P21728 whole entry): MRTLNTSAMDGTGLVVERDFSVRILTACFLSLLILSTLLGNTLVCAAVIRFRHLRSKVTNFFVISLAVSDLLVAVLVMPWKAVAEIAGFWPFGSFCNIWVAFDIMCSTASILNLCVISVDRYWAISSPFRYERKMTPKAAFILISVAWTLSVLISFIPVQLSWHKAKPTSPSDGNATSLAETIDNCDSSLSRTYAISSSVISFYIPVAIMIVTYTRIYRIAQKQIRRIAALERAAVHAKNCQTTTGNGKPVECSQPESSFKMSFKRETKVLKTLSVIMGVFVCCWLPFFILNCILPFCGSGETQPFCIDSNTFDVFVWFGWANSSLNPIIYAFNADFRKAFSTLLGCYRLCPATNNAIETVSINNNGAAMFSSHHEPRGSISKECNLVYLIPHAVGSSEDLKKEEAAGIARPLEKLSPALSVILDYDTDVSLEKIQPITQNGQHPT

Progesterone receptor = target: T4, Progesterone receptor (Bos taurus, UniProt Q690N0); experiment: DRUGMATRIX: Progesterone radioligand binding (ligand: [3H] R-5020); type: tissue-based, Uterus; settings: Not Active = under 50% inhibition at 10 µM
T4 sequence (Q690N0 whole entry): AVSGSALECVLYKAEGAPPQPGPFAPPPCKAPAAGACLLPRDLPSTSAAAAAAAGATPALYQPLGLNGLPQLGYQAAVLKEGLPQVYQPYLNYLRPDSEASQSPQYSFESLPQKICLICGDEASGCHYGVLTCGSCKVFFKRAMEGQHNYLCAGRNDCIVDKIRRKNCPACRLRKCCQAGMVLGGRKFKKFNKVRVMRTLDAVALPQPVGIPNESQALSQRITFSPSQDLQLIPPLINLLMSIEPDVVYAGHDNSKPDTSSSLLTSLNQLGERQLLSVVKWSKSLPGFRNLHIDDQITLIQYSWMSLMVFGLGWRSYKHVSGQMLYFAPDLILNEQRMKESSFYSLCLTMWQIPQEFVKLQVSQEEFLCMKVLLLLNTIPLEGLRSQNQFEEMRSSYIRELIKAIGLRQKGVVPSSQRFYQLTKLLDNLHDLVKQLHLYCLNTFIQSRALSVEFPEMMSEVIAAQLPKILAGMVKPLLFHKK

C=CC[C@@H]1/C=C(\C)C[C@H](C)C[C@H](OC)[C@H]2O[C@@](O)(C(=O)C(=O)N3CCCC[C@H]3C(=O)O[C@H](/C(C)=C/[C@@H]3CC[C@@H](O)[C@H](OC)C3)[C@H](C)[C@@H](O)CC1=O)[C@H](C)C[C@@H]2OC [TACROLIMUS ANHYDROUS]
Not Active: IC50 [1] | Ki [1] | IC50 (Carbonic anhydrase 2) | IC50 [2] | Ki [2] | IC50 (D(3) dopamine receptor) | IC50 [3] | Ki [3] | IC50 (Melanocortin receptor 3) | IC50 [4] | IC50 (Substance-P receptor) | IC50 [5] | IC50 (Interstitial collagenase) | IC50 [6] | Ki [6] | IC50 [7] | Ki [7] | IC50 [8] | IC50 (Adenosine receptor A3) | IC50 [9] | Ki [9] | IC50 [10] | Ki [10] | IC50 [11] | IC50 [12] | IC50 (D(1A) dopamine receptor) | IC50 (Progesterone receptor)

COc1ccc(C(CN(C)C)C2(O)CCCCC2)cc1 (stereo unspecified) [VENLAFAXINE]
Not Active: IC50 [1] | Ki [1] | IC50 (Carbonic anhydrase 2) | IC50 [2] | Ki [2] | IC50 (D(3) dopamine receptor) | IC50 [3] | Ki [3] | IC50 (Melanocortin receptor 3) | IC50 [4] | IC50 (Substance-P receptor) | IC50 [5] | IC50 (Interstitial collagenase) | IC50 [6] | Ki [6] | IC50 [7] | Ki [7] | IC50 [8] | IC50 (Adenosine receptor A3) | IC50 [9] | Ki [9] | IC50 [10] | Ki [10] | IC50 [11] | IC50 [12] | IC50 (D(1A) dopamine receptor) | IC50 (Progesterone receptor)

CC(C)(C)NCC(O)c1cc(O)cc(O)c1 (stereo unspecified) [TERBUTALINE]
Not Active: IC50 [1] | Ki [1] | IC50 (Carbonic anhydrase 2) | IC50 [2] | Ki [2] | IC50 (D(3) dopamine receptor) | IC50 [3] | Ki [3] | IC50 (Melanocortin receptor 3) | IC50 [4] | IC50 (Substance-P receptor) | IC50 [5] | IC50 (Interstitial collagenase) | IC50 [6] | Ki [6] | IC50 [7] | Ki [7] | IC50 [8] | IC50 (Adenosine receptor A3) | IC50 [9] | Ki [9] | IC50 [10] | Ki [10] | IC50 [11] | IC50 [12] | IC50 (D(1A) dopamine receptor) | IC50 (Progesterone receptor)
